Experimental data from PMC10233829 (ACS Omega, 2023).
Values after ≈ are worked out from the molar mass of the structure shown.

Columns and labels:
S. aureus NCTC 4163 = assay: MIC, twofold microdilution, standard strain; type: cell-based; conditions: Staphylococcus aureus, NCTC4163, 18 h
S. aureus ATCC 25923 = assay: MIC, twofold microdilution, standard strain; type: cell-based; conditions: Staphylococcus aureus, ATCC25923, 18 h
S. aureus ATCC 6538 = assay: MIC, twofold microdilution, standard strain; type: cell-based, Staphylococcus aureus; conditions: for MIC: Staphylococcus aureus, ATCC6538, standard strain, 18 h
S. aureus ATCC 29213 = assay: MIC, twofold microdilution, standard strain; type: cell-based; conditions: Staphylococcus aureus, ATCC29213, 18 h
[1] = system: S. epidermidis ATCC 12228; assay: MIC, twofold microdilution, standard strain; type: cell-based; conditions: Staphylococcus epidermidis, ATCC12228, 18 h
[2] = system: S. epidermidis ATCC 35984; assay: MIC, twofold microdilution, standard strain; type: cell-based; conditions: Staphylococcus epidermidis, ATCC35984, 18 h
P. aeruginosa ATCC 15442 = assay: MIC, twofold microdilution, standard strain; type: cell-based, Pseudomonas aeruginosa; conditions: for MIC: Pseudomonas aeruginosa, ATCC15442, standard strain, 18 h
E. coli ATCC 25922 = assay: MIC, twofold microdilution, standard strain; type: cell-based, Escherichia coli; conditions: for MIC: Escherichia coli, ATCC25922, standard strain, 18 h
S. aureus 180 = assay: MIC, twofold microdilution, clinical strain; type: cell-based; conditions: Staphylococcus aureus, 18 h
S. aureus 5595 = assay: MIC, twofold microdilution, clinical strain; type: cell-based; conditions: Staphylococcus aureus, 18 h
S. aureus T5595 = assay: MIC, twofold microdilution, clinical strain; type: cell-based, Staphylococcus aureus; conditions: for MIC S. aureus T5595: 18 h; for MIC: Staphylococcus aureus, T5595, 18 h
S. aureus T5591 = assay: MIC, twofold microdilution, clinical strain; type: cell-based, Staphylococcus aureus; conditions: for MIC S. aureus T5591: 18 h; for MIC: Staphylococcus aureus, T5591, 18 h
S. epidermidis 4341 = assay: MIC, twofold microdilution, clinical strain; type: cell-based; conditions: Staphylococcus epidermidis, 18 h
S. epidermidis 5253 = assay: MIC, twofold microdilution, clinical strain; type: cell-based, Staphylococcus epidermidis; conditions: for MIC: Staphylococcus epidermidis, 5253, 18 h
S. epidermidis KR4243/1 = assay: MIC, twofold microdilution, clinical strain; type: cell-based; conditions: Staphylococcus epidermidis, 18 h
S. pasteuri KR 4358 = assay: MIC, twofold microdilution, clinical strain; type: cell-based; conditions: Staphylococcus pasteuri, KR4358, 18 h
P. aeruginosa 37 = assay: MIC, twofold microdilution, clinical strain; type: cell-based; conditions: Pseudomonas aeruginosa, 18 h
P. aeruginosa 659 = assay: MIC, twofold microdilution, clinical strain; type: cell-based; conditions: Pseudomonas aeruginosa, 18 h
E. coli 951 = assay: MIC, twofold microdilution, clinical strain; type: cell-based; conditions: Escherichia coli, 18 h
E. coli 520 = assay: MIC, twofold microdilution, clinical strain; type: cell-based; conditions: Escherichia coli, 18 h
E. coli 600 = assay: MIC, twofold microdilution, clinical strain; type: cell-based, Escherichia coli; conditions: Escherichia coli, 600, 18 h
E. cloacae 8 = assay: MIC, twofold microdilution, clinical strain; type: cell-based, Escherichia cloacae; conditions: for MIC: Enterobacter cloacae, 8, clinical strain, 18 h
K. pneumoniae 28 = assay: MIC, twofold microdilution, clinical strain; type: cell-based; conditions: Klebsiella pneumoniae, 18 h
K. pneumoniae 510 = assay: MIC, twofold microdilution, clinical strain; type: cell-based, Klebsiella pneumoniae; conditions: for MIC: Klebsiella pneumoniae, 510, clinical strain, 18 h
M. tuberculosis H37Rv = assay: Tuberculostatic activity, Microplate Alamar Blue Assay (MIC); type: cell-based, Mycobacterium tuberculosis; parameters: concentration with growth inhibition as good as RMP and SM or EMB: unit not given here; conditions: for MIC: Mycobacterium tuberculosis, H37RV, MABA, read-out: MIC M. tuberculosis H37Rv
[3] = system: M. tuberculosis Spec. 192; assay: as above; type: cell-based; conditions: Mycobacterium tuberculosis, MABA, read-out: MIC M. tuberculosis Spec. 192 (sensitive to tuberculostatics)
PC3 cells = assay: MTT assay, cytotoxic activity; type: cell-based, human; conditions: MTT, 72 h
Method in brief: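 Cytotoxicity readout: relative MTT level (%), i.e. absorbance of compound-treated PC3 cells divided by that of untreated controls, ×100. Cultures were kept in a humidified 37 °C, 5% CO2 incubator.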

[4] = MTT assay, cytotoxic activity; type: cell-based; conditions: human, HaCaT cells (immortal keratinocytes); MTT, 72 h, normal cell line; read-out: IC50 HaCaT
Method in brief: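 Viability was calculated as A/B × 100%, with A the absorbance of treated samples and B that of untreated controls, from MTT reduction. Cells were cultured in a humidified 37 °C/5% CO2 incubator.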

[5] = system: clinical bacterial strains; assay: MIC, clinical isolates as groups of strains; type: cell-based; conditions: for MIC: clinical strains, read-out: MIC against selected E. coli and E. cloacae strains

SMILES	MIC (S. aureus NCTC 4163)	MIC (S. aureus ATCC 25923)	MIC (S. aureus ATCC 6538)	MIC (S. aureus ATCC 29213)	MIC [1]	MIC [2]	MIC (P. aeruginosa ATCC 15442)	MIC (E. coli ATCC 25922)	MIC (S. aureus 180)	MIC (S. aureus 5595)	MIC (S. aureus T5595)	MIC (S. aureus T5591)	MIC (S. epidermidis 4341)	MIC (S. epidermidis 5253)	MIC (S. epidermidis KR4243/1)	MIC (S. pasteuri KR 4358)	MIC (P. aeruginosa 37)	MIC (P. aeruginosa 659)	MIC (E. coli 951)	MIC (E. coli 520)	other results
O=C(O)c1cn(C2CC2)c2cc(N3CCN(C(=O)C4CC4)CC3)c(F)cc2c1=O [Compound 2, 7-(4-Cyclopropanecarbonyl-piperazin-1-yl)-1-cyclopropyl-6-fluoro-4-oxo-1,4-dihydro-quinoline-3-carboxylic Acid]	0.1 µg/mL (≈ 0.25 µM)	0.2 µg/mL (≈ 0.501 µM)	0.1 µg/mL (≈ 0.25 µM)	0.1 µg/mL (≈ 0.25 µM)	0.1 µg/mL (≈ 0.25 µM)	0.1 µg/mL (≈ 0.25 µM)	0.8 µg/mL (≈ 2 µM)	0.05 µg/mL (≈ 0.125 µM)	0.4 µg/mL (≈ 1 µM)	0.4 µg/mL (≈ 1 µM)	0.1 to 0.2 µg/mL (≈ 0.25 to 0.501 µM)	0.1 to 0.2 µg/mL (≈ 0.25 to 0.501 µM)	12.8 µg/mL (≈ 32 µM)	12.8 to 25.6 µg/mL (≈ 32 to 64.1 µM)	0.2 µg/mL (≈ 0.501 µM)	0.2 µg/mL (≈ 0.501 µM)	12.8 µg/mL (≈ 32 µM)	6.4 µg/mL (≈ 16 µM)	6.4 µg/mL (≈ 16 µM)	0.2 µg/mL (≈ 0.501 µM)	MIC S. aureus T5595 (S. aureus T5595): 0.2 µg/mL (≈ 0.501 µM); MIC S. aureus T5591 (S. aureus T5591): 0.2 µg/mL (≈ 0.501 µM); MIC S. epidermidis 5253 (S. epidermidis 5253; 18 h): 25.6 µg/mL (≈ 64.1 µM); MIC (E. coli 600): 0.2 µg/mL (≈ 0.501 µM); MIC times lower than CP alone (E. cloacae 8; E. cloacae isolate): 1.2 times; MIC (E. cloacae 8): 0.05 µg/mL (≈ 0.125 µM); MIC (K. pneumoniae 28): > 25.6 µg/mL; MIC (K. pneumoniae 510): 25.6 µg/mL (≈ 64.1 µM); concentration with growth inhibition as good as RMP and SM or EMB (M. tuberculosis H37Rv; M. tuberculosis H37Rv): 1–2; MIC (M. tuberculosis H37Rv): 1 µg/mL (≈ 2.5 µM); MIC [3]: 0.5 µg/mL (≈ 1.25 µM); IC50 (PC3 cells; Homo sapiens, PC-3, 72 h): 85.2 ± 8.2 µM; IC50 at 72 h [4]: 75.7 ± 7.5 µM; times more powerful than CP ([5]; S. aureus T5595 and T5591): 1.25–2.5 times; MIC [5]: 0.1 to 0.8 µg/mL (≈ 0.25 to 2 µM)
O=C(O)c1cn(C2CC2)c2cc(N3CCN(C(=O)CCl)CC3)c(F)cc2c1=O [Compound 3, 7-[4-(2-Chloroacetyl)-piperazin-1-yl]-1-cyclopropyl-6-fluoro-4-oxo-1,4-dihydro-quinoline-3-carboxylic Acid]	0.1 µg/mL (≈ 0.245 µM)	0.2 µg/mL (≈ 0.49 µM)	0.2 µg/mL (≈ 0.49 µM)	0.2 µg/mL (≈ 0.49 µM)	0.2 µg/mL (≈ 0.49 µM)	0.1 µg/mL (≈ 0.245 µM)	6.4 µg/mL (≈ 15.7 µM)	0.2 µg/mL (≈ 0.49 µM)	0.4 µg/mL (≈ 0.981 µM)	0.4 µg/mL (≈ 0.981 µM)	0.1 to 0.2 µg/mL (≈ 0.245 to 0.49 µM)	0.1 to 0.2 µg/mL (≈ 0.245 to 0.49 µM)	12.8 µg/mL (≈ 31.4 µM)	> 25.6 µg/mL	0.2 µg/mL (≈ 0.49 µM)	0.2 µg/mL (≈ 0.49 µM)	> 25.6 µg/mL	> 25.6 µg/mL	> 25.6 µg/mL	0.4 µg/mL (≈ 0.981 µM)	MIC S. aureus T5595 (S. aureus T5595): 0.2 µg/mL (≈ 0.49 µM); MIC S. aureus T5591 (S. aureus T5591): 0.1 µg/mL (≈ 0.245 µM); MIC (E. coli 600): 0.4 µg/mL (≈ 0.981 µM); MIC (E. cloacae 8): 0.8 µg/mL (≈ 1.96 µM); MIC (K. pneumoniae 28): > 25.6 µg/mL; MIC (K. pneumoniae 510): 25.6 µg/mL (≈ 62.8 µM); MIC (M. tuberculosis H37Rv): 4 µg/mL (≈ 9.81 µM); MIC [3]: 2 µg/mL (≈ 4.9 µM); IC50 (PC3 cells; Homo sapiens, PC-3, 72 h): 2.02 to 4.8 µM; IC50 (PC3 cells): 2.02 ± 0.1 µM; IC50 at 72 h [4]: 35.7 ± 8.2 µM; times more powerful than CP ([5]; S. aureus T5595 and T5591): 1.25–2.5 times; MIC [5]: 0.1 to 0.8 µg/mL (≈ 0.245 to 1.96 µM)
O=C(O)c1cn(C2CC2)c2cc(N3CCN(C(=O)CCCCl)CC3)c(F)cc2c1=O [Compound 5, 7-[4-(4-Chlorobutyryl)-piperazin-1-yl]-1-cyclopropyl-6-fluoro-4-oxo-1,4-dihydro-quinoline-3-carboxylic Acid]	0.2 µg/mL (≈ 0.459 µM)	0.8 µg/mL (≈ 1.84 µM)	0.2 µg/mL (≈ 0.459 µM)	0.4 µg/mL (≈ 0.918 µM)	0.4 µg/mL (≈ 0.918 µM)	0.2 µg/mL (≈ 0.459 µM)	0.2 µg/mL (≈ 0.459 µM)	0.025 µg/mL (≈ 0.0574 µM)	0.4 µg/mL (≈ 0.918 µM)	0.4 µg/mL (≈ 0.918 µM)	0.4 µg/mL (≈ 0.918 µM)	0.4 µg/mL (≈ 0.918 µM)	12.8 µg/mL (≈ 29.4 µM)	> 25.6 µg/mL	0.2 µg/mL (≈ 0.459 µM)	0.2 µg/mL (≈ 0.459 µM)	0.8 µg/mL (≈ 1.84 µM)	0.8 µg/mL (≈ 1.84 µM)	0.8 µg/mL (≈ 1.84 µM)	0.025 µg/mL (≈ 0.0574 µM)	MIC used in biofilm eradication assay, S. aureus 6538 (S. aureus ATCC 6538; Table S1, MIC): 0.200 µg/mL (≈ 0.459 µM); MIC used in biofilm eradication assay, P. aeruginosa 15442 (P. aeruginosa ATCC 15442; Table S1, MIC): 0.200 µg/mL (≈ 0.459 µM); MIC used in biofilm eradication assay, E. coli ATCC 25922 (E. coli ATCC 25922; Table S1, MIC): 0.025 µg/mL (≈ 0.0574 µM); MIC (E. coli 600): 0.025 µg/mL (≈ 0.0574 µM); MIC (E. cloacae 8): 0.05 µg/mL (≈ 0.115 µM); MIC (K. pneumoniae 28): > 25.6 µg/mL; share of the reference (CP) activity (K. pneumoniae 510; Klebsiella pneumoniae rods): 62.5%; MIC (K. pneumoniae 510): 6.4 µg/mL (≈ 14.7 µM); MIC (M. tuberculosis H37Rv): 0.5 µg/mL (≈ 1.15 µM); MIC [3]: 0.5 µg/mL (≈ 1.15 µM); IC50 (PC3 cells; Homo sapiens, PC-3, 72 h): 97.2 ± 11 µM; IC50 at 72 h [4]: > 100 µM; share of the reference (CP) activity ([5]; S. aureus T5595 and T5591): 62.5%
